Legend:
Conditions in all cases: incubation time: 72 h
HCC1143 [1] = experiment: normalised response (% of control), CellTiter-Glo; higher = more viable cells (100 = DMSO, 0 = benzethonium chloride kill control)
Summary of the method: (§1)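 Plates were normalised with 0.1 % DMSO as 100 and a positive kill control as 0. Breast cancer cell lines in 20 µl suspension had been seeded into 384-well plates with compound at 5 concentrations in 10-fold steps over a compound-specific 10,000-fold range, incubated 72 h, and read for CellTox Green fluorescence (485/520 nm) followed by CellTiter-Glo luminescence. Each value is the normalised signal at a single concentration.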

CAL-85-1 [2] = experiment: as above
Summary of the method: as §1

MDA-MB-436 [3] = experiment: as above
Summary of the method: as §1

MDA-MB-468 [4] = experiment: as above
Summary of the method: as §1

HDQ-P1 [5] = experiment: as above
Summary of the method: as §1

MFM-223 [6] = experiment: as above
Summary of the method: as §1

HCC1599 [7] = experiment: as above
Summary of the method: as §1

CAL-148 [8] = experiment: as above
Summary of the method: as §1

BT-549 [9] = experiment: as above
Summary of the method: as §1

CAL-51 [10] = experiment: as above
Summary of the method: as §1

HCC1937 [11] = experiment: as above
Summary of the method: as §1

Hs578T [12] = experiment: as above
Summary of the method: as §1

DU-4475 [13] = experiment: as above
Summary of the method: as §1

MDA-MB-453 [14] = experiment: as above
Summary of the method: as §1

MDA-MB-231 [15] = experiment: as above
Summary of the method: as §1

SK-BR-3 [16] = experiment: as above
Summary of the method: as §1

CAL-120 [17] = experiment: as above
Summary of the method: as §1

BT-474 [18] = experiment: as above
Summary of the method: as §1

MCF-10A = experiment: as above
Summary of the method: as §1

HCC1143 [19] = experiment: normalised viability (% of control), CellTiter-Blue; higher = more viable cells (100 = DMSO, 0 = benzethonium chloride kill control)
Description: (§2)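 DSRT, CellTiter-Blue viability, 72 h incubation. Signal is normalised to DMSO and benzethonium chloride controls. Value is the normalised response at dose 1.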

CAL-85-1 [20] = experiment: as above
Description: as §2

MDA-MB-436 [21] = experiment: as above
Description: as §2

MDA-MB-468 [22] = experiment: as above
Description: as §2

HDQ-P1 [23] = experiment: as above
Description: as §2

MFM-223 [24] = experiment: as above
Description: as §2

HCC1599 [25] = experiment: as above
Description: as §2

CAL-148 [26] = experiment: as above
Description: as §2

BT-549 [27] = experiment: as above
Description: as §2

CAL-51 [28] = experiment: as above
Description: as §2

HCC1937 [29] = experiment: as above
Description: as §2

Hs578T [30] = experiment: as above
Description: as §2

DU-4475 [31] = experiment: as above
Description: as §2

MDA-MB-453 [32] = experiment: as above
Description: as §2

MDA-MB-231 [33] = experiment: as above
Description: as §2

SK-BR-3 [34] = experiment: as above
Description: as §2

CAL-120 [35] = experiment: as above
Description: as §2

BT-474 [36] = experiment: as above
Description: as §2

## O=P1(NCCCl)OCCCN1CCCl (stereo unspecified) [Ifosfamide] (1 nM)
HCC1143 [1]
  normalised response: 89.7%
CAL-85-1 [2]
  normalised response: 93.9%
MDA-MB-436 [3]
  normalised response: 97.8%
MDA-MB-468 [4]
  normalised response: 95.3%
HDQ-P1 [5]
  normalised response: 98.1%
MFM-223 [6]
  normalised response: 87.2%
HCC1599 [7]
  normalised response: 94.2%
CAL-148 [8]
  normalised response: 99.4%
BT-549 [9]
  normalised response: 102%
CAL-51 [10]
  normalised response: 78.5%
HCC1937 [11]
  normalised response: 94.8%
Hs578T [12]
  normalised response: 98.8%
DU-4475 [13]
  normalised response: 93.7%
MDA-MB-453 [14]
  normalised response: 90.3%
MDA-MB-231 [15]
  normalised response: 97%
SK-BR-3 [16]
  normalised response: 93.3%
CAL-120 [17]
  normalised response: 92.2%
BT-474 [18]
  normalised response: 94.2%
MCF-10A
  normalised response: 92.1%
HCC1143 [19]
  normalised viability: 88.9%
CAL-85-1 [20]
  normalised viability: 84.3%
MDA-MB-436 [21]
  normalised viability: 95.2%
MDA-MB-468 [22]
  normalised viability: 124%
HDQ-P1 [23]
  normalised viability: 119%
MFM-223 [24]
  normalised viability: 93.8%
HCC1599 [25]
  normalised viability: 109%
CAL-148 [26]
  normalised viability: 118%
BT-549 [27]
  normalised viability: 122%
CAL-51 [28]
  normalised viability: 110%
HCC1937 [29]
  normalised viability: 87.6%
Hs578T [30]
  normalised viability: 55.3%
DU-4475 [31]
  normalised viability: 116%
MDA-MB-453 [32]
  normalised viability: 107%
MDA-MB-231 [33]
  normalised viability: 122%
SK-BR-3 [34]
  normalised viability: 98.3%
CAL-120 [35]
  normalised viability: 89.7%
BT-474 [36]
  normalised viability: 86.7%

## N.N.[Cl][Pt][Cl] [Cisplatin] (1 nM)
HCC1143 [1]
  normalised response: 90.8%
CAL-85-1 [2]
  normalised response: 94.9%
MDA-MB-436 [3]
  normalised response: 96.7%
MDA-MB-468 [4]
  normalised response: 94.9%
HDQ-P1 [5]
  normalised response: 101%
MFM-223 [6]
  normalised response: 99.4%
HCC1599 [7]
  normalised response: 102%
CAL-148 [8]
  normalised response: 90.5%
BT-549 [9]
  normalised response: 98.7%
CAL-51 [10]
  normalised response: 74.7%
HCC1937 [11]
  normalised response: 101%
Hs578T [12]
  normalised response: 101%
DU-4475 [13]
  normalised response: 94.2%
MDA-MB-453 [14]
  normalised response: 99.3%
MDA-MB-231 [15]
  normalised response: 100%
SK-BR-3 [16]
  normalised response: 98.7%
CAL-120 [17]
  normalised response: 101%
BT-474 [18]
  normalised response: 101%
MCF-10A
  normalised response: 95.4%
HCC1143 [19]
  normalised viability: 98.2%
CAL-85-1 [20]
  normalised viability: 92.1%
MDA-MB-436 [21]
  normalised viability: 105%
MDA-MB-468 [22]
  normalised viability: 98.2%
HDQ-P1 [23]
  normalised viability: 106%
MFM-223 [24]
  normalised viability: 93.7%
HCC1599 [25]
  normalised viability: 96.4%
CAL-148 [26]
  normalised viability: 118%
BT-549 [27]
  normalised viability: 92%
CAL-51 [28]
  normalised viability: 113%
HCC1937 [29]
  normalised viability: 90.5%
Hs578T [30]
  normalised viability: 121%
DU-4475 [31]
  normalised viability: 107%
MDA-MB-453 [32]
  normalised viability: 111%
MDA-MB-231 [33]
  normalised viability: 103%
SK-BR-3 [34]
  normalised viability: 100%
CAL-120 [35]
  normalised viability: 85.1%
BT-474 [36]
  normalised viability: 109%

## C[C@]12CC[C@@H]3c4ccc(O)cc4C[C@@H](CCCCCCCCC[S+]([O-])CCCC(F)(F)C(F)(F)F)[C@H]3[C@@H]1CC[C@@H]2O (stereo partly specified) [Fulvestrant] (1 nM)
HCC1143 [1]
  normalised response: 105%
CAL-85-1 [2]
  normalised response: 101%
MDA-MB-436 [3]
  normalised response: 105%
MDA-MB-468 [4]
  normalised response: 97.8%
HDQ-P1 [5]
  normalised response: 99.3%
MFM-223 [6]
  normalised response: 104%
HCC1599 [7]
  normalised response: 90.3%
CAL-148 [8]
  normalised response: 103%
BT-549 [9]
  normalised response: 98.4%
CAL-51 [10]
  normalised response: 119%
HCC1937 [11]
  normalised response: 96.9%
Hs578T [12]
  normalised response: 111%
DU-4475 [13]
  normalised response: 102%
MDA-MB-453 [14]
  normalised response: 112%
MDA-MB-231 [15]
  normalised response: 101%
CAL-120 [17]
  normalised response: 97.4%
BT-474 [18]
  normalised response: 103%
MCF-10A
  normalised response: 103%
HCC1143 [19]
  normalised viability: 79.1%
CAL-85-1 [20]
  normalised viability: 78.7%
MDA-MB-436 [21]
  normalised viability: 106%
MDA-MB-468 [22]
  normalised viability: 93.2%
HDQ-P1 [23]
  normalised viability: 93.6%
MFM-223 [24]
  normalised viability: 74.9%
HCC1599 [25]
  normalised viability: 94.6%
CAL-148 [26]
  normalised viability: 102%
BT-549 [27]
  normalised viability: 89.9%
CAL-51 [28]
  normalised viability: 111%
HCC1937 [29]
  normalised viability: 87.6%
Hs578T [30]
  normalised viability: 90.2%
DU-4475 [31]
  normalised viability: 97.6%
MDA-MB-453 [32]
  normalised viability: 100%
MDA-MB-231 [33]
  normalised viability: 79%
SK-BR-3 [34]
  normalised viability: 108%
CAL-120 [35]
  normalised viability: 77.8%
BT-474 [36]
  normalised viability: 70.6%

## C[C@@H](Oc1cc(-c2cnn(C3CCNCC3)c2)cnc1N)c1c(Cl)ccc(F)c1Cl [Crizotinib] (1 nM)
HCC1143 [1]
  normalised response: 102%
CAL-85-1 [2]
  normalised response: 96.6%
MDA-MB-436 [3]
  normalised response: 103%
MDA-MB-468 [4]
  normalised response: 99.8%
HDQ-P1 [5]
  normalised response: 96.4%
MFM-223 [6]
  normalised response: 101%
HCC1599 [7]
  normalised response: 106%
CAL-148 [8]
  normalised response: 91.3%
BT-549 [9]
  normalised response: 91.8%
CAL-51 [10]
  normalised response: 117%
HCC1937 [11]
  normalised response: 105%
Hs578T [12]
  normalised response: 101%
DU-4475 [13]
  normalised response: 105%
MDA-MB-453 [14]
  normalised response: 100%
MDA-MB-231 [15]
  normalised response: 108%
CAL-120 [17]
  normalised response: 91.7%
BT-474 [18]
  normalised response: 101%
MCF-10A
  normalised response: 94.9%
HCC1143 [19]
  normalised viability: 86.5%
CAL-85-1 [20]
  normalised viability: 83.9%
MDA-MB-436 [21]
  normalised viability: 74.1%
MDA-MB-468 [22]
  normalised viability: 91.4%
HDQ-P1 [23]
  normalised viability: 61.5%
MFM-223 [24]
  normalised viability: 87.8%
HCC1599 [25]
  normalised viability: 85.4%
CAL-148 [26]
  normalised viability: 101%
BT-549 [27]
  normalised viability: 75.4%
CAL-51 [28]
  normalised viability: 108%
HCC1937 [29]
  normalised viability: 105%
Hs578T [30]
  normalised viability: 90.5%
DU-4475 [31]
  normalised viability: 101%
MDA-MB-453 [32]
  normalised viability: 95.3%
MDA-MB-231 [33]
  normalised viability: 93.3%
SK-BR-3 [34]
  normalised viability: 98.5%
CAL-120 [35]
  normalised viability: 90.6%
BT-474 [36]
  normalised viability: 113%
